Data published in patent US20210308089A1, “METHODS OF TREATING AND/OR PREVENTING VIRAL INFECTIONS AND/OR DISEASES CAUSED BY VIRUSES IN A SUBJECT IN NEED THEREOF” (priority 2020, published 2021).

Test system: patients of the REDUCE-IT and earlier EPA placebo-controlled trials
Type: in vivo, human
Details: R-I

Structure (SMILES): CC/C=C\C/C=C\C/C=C\C/C=C\C/C=C\CCCC(=O)OCC [icosapent ethyl, eicosapentaenoic acid ethyl ester]
- AR: ALP high (Day 120): 3.2%
- AR: ALP high (Day 360): 3.4%
- AR: ALP high (Day 720): 4.4%
- AR: ALP high (Day 1080): 4.4%
- AR: ALP high (Day 1440): 4.2%
- AR: ALP high (Day 1800): 4.3%
- AR: ALP shift: normal to high (Day 120): 1.5%
- AR: ALP shift: normal to high (Day 360): 1.8%
- AR: ALP shift: normal to high (Day 720): 3.0%
- AR: ALP shift: normal to high (Day 1080): 3.3%
- AR: ALP shift: normal to high (Day 1440): 3.2%
- AR: ALP shift: normal to high (Day 1800): 3.3%
- AR: ALP shift: normal to low (Day 120): 0.3%
- AR: ALP shift: normal to low (Day 360): 0.3%
- AR: ALP shift: normal to low (Day 720): 0.4%
- AR: ALP shift: normal to low (Day 1080): 0.4%
- AR: ALP shift: normal to low (Day 1440): 0.6%
- AR: Albumin high (Day 120): 1.0%
- AR: Albumin high (Day 360): 1.2%
- AR: Albumin high (Day 720): 2.1%
- AR: Albumin high (Day 1080): 1.9%
- AR: Albumin high (Day 1440): 1.8%
- AR: Albumin shift: normal to high (Day 120): 0.8%
- AR: Albumin shift: normal to high (Day 360): 0.9%
- AR: Albumin shift: normal to high (Day 720): 1.9%
- AR: Albumin shift: normal to high (Day 1080): 1.8%
- AR: Albumin shift: normal to high (Day 1440): 1.6%
- AR: Bilirubin >1x ULN to 2x ULN: 3.3%
- AR: Bilirubin >2x ULN to 3x ULN: 0.2%
- AR: Bilirubin high (Day 120): 1.9%
- AR: Bilirubin high (Day 360): 1.9%
- AR: Bilirubin high (Day 720): 2.0%
- AR: Bilirubin high (Day 1080): 2.4%
- AR: Bilirubin high (Day 1440): 2.3%
- AR: Bilirubin high (Day 1800): 2.6%
- AR: Bilirubin shift: normal to high (Day 120): 1.0%
- AR: Bilirubin shift: normal to high (Day 360): 0.9%
- AR: Bilirubin shift: normal to high (Day 720): 1.0%
- AR: Bilirubin shift: normal to high (Day 1080): 1.4%
- AR: Bilirubin shift: normal to high (Day 1440): 1.3%
- AR: Bilirubin shift: normal to high (Day 1800): 1.4%
- AR: Calcium high (Day 120): 1.0%
- AR: Calcium high (Day 360): 1.1%
- AR: Calcium high (Day 720): 1.2%
- AR: Calcium low (Day 120): 0.2%
- AR: Calcium low (Day 360): 0.2%
- AR: Calcium low (Day 720): 0.2%
- AR: DBP High (≥100 mmHg): 5.3%
- AR: DBP High and Rose ≥10 mmHg: 4.3%
- AR: DBP Low (≤50 mmHG): 1.0%
- AR: DBP Low and dropped ≥10 mmHg: 0.9%
- AR: DBP dropped ≥10 mmHG: 37.8%
- AR: DBP rose ≥10 mmHg: 36.5%
- AR: High platelets (Day 720): 1.5%
- AR: Low platelets (Day 360): 2.0%
- AR: Low platelets (Day 720): 3.1%
- AR: Low platelets (Day 1080): 3.2%
- AR: Platelet count: PCS Low <100 × 10^3/uL: 0.8%
- AR: SBP High (≥160 mmHg): 18.8%
- AR: SBP High and rose ≥20 mmHg: 11.9%
- AR: SBP Low (≤90 mmHg): 0.8%
- AR: SBP dropped ≥20 mmHg: 24.0%
- AR: SBP low and dropped ≥20 mmHg: 0.6%
- AR: SBP rose ≥20 mmHg: 29.6%
- AR: Urate high (Day 120): 13.4%
- AR: Urate high (Day 360): 13.0%
- AR: Urate high (Day 720): 12.4%
- AR: Urate high (Day 1080): 12.7%
- AR: Urate high (Day 1440): 12.7%
- AR: Urate high (Day 1800): 12.1%
- AR: Urate shift: normal to high (Day 120): 5.5%
- AR: Urate shift: normal to high (Day 360): 6.0%
- AR: Urate shift: normal to high (Day 720): 6.2%
- AR: Urate shift: normal to high (Day 1080): 7.1%
- AR: Urate shift: normal to high (Day 1440): 8.2%
- AR: Urate shift: normal to high (Day 1800): 8.2%
- AR: Urate shift: normal to low (Day 120): 0.1%
- AR: Urate shift: normal to low (Day 360): 0.2%
- AR: Urate shift: normal to low (Day 720): 0.2%
- AR: Urate shift: normal to low (Day 1080): 0.2%
- AR: Urate shift: normal to low (Day 1440): 0.3%
- AR: Uric acid PCS High >7.5 mg/dL (Women): 5.0%
- AR: Uric acid PCS High >8.0 mg/dL (Men): 15.3%
- AR: Uric acid PCS Low <1.9 mg/dL (Women): 0.0%
- AR: Uric acid PCS Low <2.5 mg/dL (Men): 0.4%
- ARR: ALP high (Day 120): −1.5%
- ARR: ALP high (Day 360): −2.0%
- ARR: ALP high (Day 720): −2.4%
- ARR: ALP high (Day 1080): −3.0%
- ARR: ALP high (Day 1440): −2.9%
- ARR: ALP high (Day 1800): −2.7%
- ARR: ALP shift: normal to high (Day 120): −1.3%
- ARR: ALP shift: normal to high (Day 360): −1.8%
- ARR: ALP shift: normal to high (Day 720): −2.6%
- ARR: ALP shift: normal to high (Day 1080): −3.0%
- ARR: ALP shift: normal to high (Day 1440): −2.7%
- ARR: ALP shift: normal to high (Day 1800): −2.6%
- ARR: ALP shift: normal to low (Day 120): 0.4%
- ARR: ALP shift: normal to low (Day 360): 0.3%
- ARR: ALP shift: normal to low (Day 720): 0.4%
- ARR: ALP shift: normal to low (Day 1080): 0.3%
- ARR: ALP shift: normal to low (Day 1440): 0.1%
- ARR: Albumin high (Day 120): 0.8%
- ARR: Albumin high (Day 360): 0.7%
- ARR: Albumin high (Day 720): 0.6%
- ARR: Albumin high (Day 1080): 0.7%
- ARR: Albumin high (Day 1440): 0.8%
- ARR: Albumin shift: normal to high (Day 120): 0.8%
- ARR: Albumin shift: normal to high (Day 720): 0.7%
- ARR: Albumin shift: normal to high (Day 1080): 0.4%
- ARR: Albumin shift: normal to high (Day 1440): 0.7%
- ARR: Bilirubin >1x ULN to 2x ULN: 3.5%
- ARR: Bilirubin >2x ULN to 3x ULN: 0.2%
- ARR: Bilirubin high (Day 120): 2.4%
- ARR: Bilirubin high (Day 360): 2.0%
- ARR: Bilirubin high (Day 720): 2.6%
- ARR: Bilirubin high (Day 1080): 2.0%
- ARR: Bilirubin high (Day 1440): 2.5%
- ARR: Bilirubin high (Day 1800): 2.3%
- ARR: Bilirubin shift: normal to high (Day 120): 1.3%
- ARR: Bilirubin shift: normal to high (Day 360): 1.3%
- ARR: Bilirubin shift: normal to high (Day 720): 1.3%
- ARR: Bilirubin shift: normal to high (Day 1080): 1.0%
- ARR: Bilirubin shift: normal to high (Day 1440): 1.8%
- ARR: Bilirubin shift: normal to high (Day 1800): 1.2%
- ARR: Calcium high (Day 120): −0.2%
- ARR: Calcium high (Day 360): −0.1%
- ARR: Calcium high (Day 720): −0.3%
- ARR: Calcium low (Day 120): 0.1%
- ARR: Calcium low (Day 360): 0.2%
- ARR: Calcium low (Day 720): 0.2%
- ARR: DBP High (≥100 mmHg): 0.6%
- ARR: DBP High and Rose ≥10 mmHg: 0.4%
- ARR: DBP Low (≤50 mmHG): 0.1%
- ARR: DBP Low and dropped ≥10 mmHg: 0.0%
- ARR: DBP dropped ≥10 mmHG: 3.2%
- ARR: DBP rose ≥10 mmHg: −0.6%
- ARR: High platelets (Day 720): 0.6%
- ARR: Low platelets (Day 360): −1.8%
- ARR: Low platelets (Day 720): −0.7%
- ARR: Low platelets (Day 1080): −1.2%
